# Test results from the supplement of paper PMC4862054.
# How the values were obtained:
# Conditions in all cases: incubation time: 72 h
# SK-BR-3 = assay: normalised response (% of control), CellTiter-Glo; higher = more viable cells (100 = DMSO, 0 = benzethonium chloride kill control)
# In short: (§1)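 CellTox Green fluorescence (485/520 nm) and, after 10 min at room temperature, CellTiter-Glo luminescence were read from breast cancer cell lines incubated 72 h in 384-well plates. Cells were seeded as 20 µl suspension onto compound at 5 concentrations in 10-fold steps over a 10,000-fold range chosen per compound. Each plate was normalised to 0.1 % DMSO (100) and a positive kill control (0). Values are normalised signals, one per concentration.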
# HDQ-P1 [1] = assay: as above
# In short: as §1
# CAL-120 [2] = assay: as above
# In short: as §1
# CAL-85-1 [3] = assay: as above
# In short: as §1
# CAL-51 [4] = assay: as above
# In short: as §1
# BT-549 [5] = assay: as above
# In short: as §1
# MFM-223 [6] = assay: as above
# In short: as §1
# MDA-MB-436 [7] = assay: as above
# In short: as §1
# HCC1937 [8] = assay: as above
# In short: as §1
# BT-474 [9] = assay: as above
# In short: as §1
# HCC1143 [10] = assay: as above
# In short: as §1
# MDA-MB-453 [11] = assay: as above
# In short: as §1
# DU-4475 [12] = assay: as above
# In short: as §1
# Hs578T [13] = assay: as above
# In short: as §1
# MCF-10A [14] = assay: as above
# In short: as §1
# CAL-148 [15] = assay: as above
# In short: as §1
# MDA-MB-468 [16] = assay: as above
# In short: as §1
# MDA-MB-231 [17] = assay: as above
# In short: as §1
# HCC1599 [18] = assay: as above
# In short: as §1
# HDQ-P1 [19] = assay: normalised response (% of control), CellTox Green; higher = less cell death (100 = DMSO, 0 = benzethonium chloride kill control)
# In short: as §1
# CAL-120 [20] = assay: as above
# In short: as §1
# CAL-85-1 [21] = assay: as above
# In short: as §1
# CAL-51 [22] = assay: as above
# In short: as §1
# BT-549 [23] = assay: as above
# In short: as §1
# MFM-223 [24] = assay: as above
# In short: as §1
# MDA-MB-436 [25] = assay: as above
# In short: as §1
# HCC1937 [26] = assay: as above
# In short: as §1
# BT-474 [27] = assay: as above
# In short: as §1
# HCC1143 [28] = assay: as above
# In short: as §1
# MDA-MB-453 [29] = assay: as above
# In short: as §1
# DU-4475 [30] = assay: as above
# In short: as §1
# Hs578T [31] = assay: as above
# In short: as §1
# MCF-10A [32] = assay: as above
# In short: as §1
# CAL-148 [33] = assay: as above
# In short: as §1
# MDA-MB-468 [34] = assay: as above
# In short: as §1
# MDA-MB-231 [35] = assay: as above
# In short: as §1
# HCC1599 [36] = assay: as above
# In short: as §1
Structure (SMILES),normalised response (SK-BR-3) [%],normalised response (HDQ-P1 [1]) [%],normalised response (CAL-120 [2]) [%],normalised response (CAL-85-1 [3]) [%],normalised response (CAL-51 [4]) [%],normalised response (BT-549 [5]) [%],normalised response (MFM-223 [6]) [%],normalised response (MDA-MB-436 [7]) [%],normalised response (HCC1937 [8]) [%],normalised response (BT-474 [9]) [%],normalised response (HCC1143 [10]) [%],normalised response (MDA-MB-453 [11]) [%],normalised response (DU-4475 [12]) [%],normalised response (Hs578T [13]) [%],normalised response (MCF-10A [14]) [%],normalised response (CAL-148 [15]) [%],normalised response (MDA-MB-468 [16]) [%],normalised response (MDA-MB-231 [17]) [%],normalised response (HCC1599 [18]) [%],normalised response (HDQ-P1 [19]) [%],normalised response (CAL-120 [20]) [%],normalised response (CAL-85-1 [21]) [%],normalised response (CAL-51 [22]) [%],normalised response (BT-549 [23]) [%],normalised response (MFM-223 [24]) [%],normalised response (MDA-MB-436 [25]) [%],normalised response (HCC1937 [26]) [%],normalised response (BT-474 [27]) [%],normalised response (HCC1143 [28]) [%],normalised response (MDA-MB-453 [29]) [%],normalised response (DU-4475 [30]) [%],normalised response (Hs578T [31]) [%],normalised response (MCF-10A [32]) [%],normalised response (CAL-148 [33]) [%],normalised response (MDA-MB-468 [34]) [%],normalised response (MDA-MB-231 [35]) [%],normalised response (HCC1599 [36]) [%]
C=CCc1cccc(/C=N/NC(=O)CN2CCN(Cc3ccccc3)CC2)c1O [PAC-1] (1000 nM),109,93.3,97.5,98.5,67.2,75.1,100,86,92.7,97.9,103,93.6,102,103,116,101,101,96.8,120,112,102,105,73.1,61.6,102,89.7,92.5,98.8,119,106,101,104,112,104,128,107,98.4
CC[C@H](C)C(=O)O[C@H]1C[C@H](O)C=C2C=C[C@H](C)[C@H](CC[C@@H](O)C[C@@H](O)CC(=O)O)[C@H]21 [Pravastatin] (1000 nM),86.2,92.2,95.3,95.5,54.5,96.3,85.5,18.9,86.9,85.8,94.3,87.7,82.1,98.4,96.1,87.6,89.9,89.9,70.8,112,100,93.4,87.6,85.2,98.5,-66.6,95.4,99.3,59,105,99,95.2,108,99.8,134,85.4,95.4
CC(=O)Nc1cccc(-n2c(=O)n(C3CC3)c(=O)c3c(Nc4ccc(I)cc4F)n(C)c(=O)c(C)c32)c1 [Trametinib] (25 nM),102,61.2,71.7,68.9,105,107,94.6,91.2,81.3,73.5,72.5,111,0.42,83.2,35.7,90.7,88.7,72.1,101,92.3,87.6,66.6,113,93.6,101,97.2,124,102,116,111,64.6,113,81.3,108,103,66.4,105
N#Cc1ccc(C(c2ccc(C#N)cc2)n2cncn2)cc1 [Letrozole] (1000 nM),99.5,102,99,98.8,80.8,103,100,105,103,94.4,108,99.3,98.8,97.1,101,94.7,103,96.5,104,102,103,105,98.2,89.6,88.4,87.6,67.6,100,101,96.4,100,106,114,101,75.9,98.9,85.3
